For data set [1], the system named is Duroc×Landrace×Yorkshire cross-bred bacon-type pigs. In words: Breeding test B1: effect on the production performance of pigs. The format is in vivo. The conditions noted are these: 400 ppm in basal daily ration, 28 days. From the text:
270 65-day-old Duroc×Landrace×Yorkshire cross-bred bacon-type pigs with similar body weight were randomly divided into 9 groups, with 3 replications per group and 10 pigs (half of male and female) per replication. The pigpens and utensils were sterilized before the test. During the test period, the test pigs were free-stall housed in the same pigpen under the same feeding and management conditions. During the test period, the test pigs were free to drink water and eat feed, and test pigs were fed twice a day. The test groups were the control group (group I) and the test groups II˜IX, respectively. Wherein the basal daily ration was only given for the control group, and 400 ppm of different acylated derivative of the aminobutyric acid was added into the basal daily ration for the test groups II˜IX.
No other antioxidant ingredients and growth promoters were added for the test groups during the entire feeding process. The test period was 28 days, with each repetition as a unit, the test pigs were weighed at the age of 93 days without stopping water and feed for 12 hours; the average daily feed intake (ADFI, g/d*each pig), the average daily gain (ADG, g/d*each pig) and the feed conversion ratio (FCR) were calculated for each of the test groups. The formula for calculation was as follows: Average daily feed intake=(total amount of feed−remaining amount of feed)/(number of days of test×number of pigs per repetition); Average daily gain=(average body weight at the end of the test−average body weight at the beginning of the test)/number of days of test; Feed conversion ratio=average daily feed intake/average daily gain.

Another data set concerns Jingbai laying hens. Description: Breeding test B2: effect on the production performance of laying hens. The format is in vivo. The conditions noted are these: 150 ppm in basal daily ration, 158 days. From the text: The test adopted a single-factor random design. 1,080 147-day-old Jingbai laying hens with similar body weight were selected and randomly divided into 9 groups, with 6 replications per group and 20 Jingbai laying hens per replication. The poultry houses and utensils were sterilized before the test. During the test period, the Jingbai laying hens were cage cultured in the same poultry house under the same feeding and management conditions. The basal daily ration was mainly corn-soybean meal, and no other antioxidant ingredients and growth promoters were added additionally during the entire feeding process. The test groups were the control group (group I) and the test groups II˜IX, respectively. The basal daily ration was only given for the control group, and 150 ppm of different acylated derivatives of the aminobutyric acid were added into the basal daily ration for the test groups II˜IX. The pre-feeding period was 10 days, and the test period was 158 days. The test laying hens were free to drink water and eat feed, and were fed twice a day. The test takes each repetition as a unit, and records the total egg number, the egg production, and the feed intake every day, and calculates the egg production rate (EPR), the average daily feed intake (ADFI, g/d), the egg weight (EW, g) and the feed-to-egg ratio (FER) of the laying hens during the entire test. The formula for calculation was as follows: Egg production rate (%)=average daily total egg number/number of laying hens×100; Egg weight (g)=average daily total egg weight/average daily total egg number; Feed-to-egg ratio=average daily feed intake/egg weight.

Data set [2] concerns yellow-feathered broilers. In words: Breeding test B3: effect on the production performance of broilers. The format is in vivo. The conditions noted are these: 300 ppm in basal daily ration, 20 days. The source says:
The test adopted a single-factor random design. 1,080 1-day-old yellow-feathered broilers with similar body weight and the average weight of 50 g were selected and randomly divided into 9 groups, with 6 replications per group and 20 yellow-feathered broilers (half of male and female) per replication. The poultry houses and utensils were sterilized before the test. During the test period, the yellow-feathered broilers were housed in the same poultry house under the same feeding and management conditions. The basal daily ration was mainly corn-soybean meal, and no other antioxidant components and growth promoters were added additionally during the entire feeding process. The test groups were the control group (group I) and the test groups II˜IX, respectively. The basal daily ration was only given for the control group, and 300 ppm of different acylated derivatives of the aminobutyric acid were added into the basal daily ration for the test groups II˜IX.
The test period was 20 days. The test broilers were free to drink water and eat feed, and were fed twice a day. With each repetition as a unit, the test broilers were weighed at the age of 21 days (stopping feed for 12 hours, without stopping water), the feed consumption of test broilers were recorded, and the average daily feed intake (ADFI, g/d*each broiler), the average daily gain (ADG, g/d*each broiler) and feed conversion ratio (FCR) were calculated for each of the test groups. The formula for calculation was as follows: Feed conversion ratio (FCR)=average daily feed intake/average daily gain.

For a further data set, the system named is grass carps. In words: Breeding test B4: use in fish feed (growth of grass carps). The format is in vivo. The method, then:
The test fishes used were grass carps, and the test was carried out in the aquaculture farm of the test field of Guangzhou Insighter. Healthy, lively, and uniform grass carp fingerlings were fed in large cages for 4 weeks before being used for formal breeding test. The experimental system was a small floating cage. Both the small cage and the temporary cage were placed in a 3500 m^2 pond of the test field, the depth of the pond was about 1.5 m, and the water of the pond was fully aerated in the bottom of the pond. During the test, 360 grass carps that were hungry for 1 day were randomly divided into 9 groups, with 4 replications per group and 10 grass carps per replication. All of the grass carps were weighed, and then were randomly placed in 36 cages and fed with different test feeds. The test feeds were self-prepared, and 150 ppm of different acylated derivatives of the aminobutyric acid were added into the basal feed for different test groups, respectively. The test groups were the control group (group I) and the test groups IIIX, respectively. The basal daily ration was only given for the control group, and 150 ppm of different acylated derivatives of the aminobutyric acid were added into the basal daily ration for the test groups IIIX.
The test adopted time-limited artificial feeding, and the feeding amount was adjusted once a week. The feeding rate of the control group and the feeding rate of the test groups (according to the initial body weight) were exactly the same, and the grass carps were fed twice a day (7:30 and 15:00). The test period was 8 weeks.

For data set [3] the following is noted: after subcutaneous injection; cited from earlier work.
The test system of data set [4] is convulsion caused by bicuculline or corazol. The conditions noted are these: cited from earlier work.
A further data set has as its system glutamate decarboxylase. The conditions noted are these: cited from earlier work.
In data set [5] the test system is nephrotoxicity caused by cephalosporin. The conditions noted are these: rabbit; 150 mg/kg; cephalosporin at a dose of 150 mg/kg; cited from earlier work.

In the case of `O=C(O)CCCNC(=O)c1ccccc1` [N-benzoyl-γ-aminobutyric acid], the “ADFI (average daily feed intake)” value came to 1837 g/d * each pig in data set [1] (65-day-old pigs), 158 g/day with Jingbai laying hens and 27.56 g/d * each broiler in data set [2] (1-day-old broilers). Also, the “ADG (average daily gain)” value turned out to be 699 g/d * each pig in data set [1] (65-day-old pigs) and 14.13 g/d * each broiler in data set [2]. Further, the “FCR (feed conversion ratio)” value in data set [1] (ADFI/ADG) came out at 2.628; in data set [2] (ADFI/ADG), 1.95. The “EW (egg weight)” value with Jingbai laying hens came out at 54.92 g. Further, the “EPR (egg production rate)” value in the data set with Jingbai laying hens (147-day-old laying hens) worked out at 86.7%. The “(FCR)” value in the data set on grass carps (150 ppm in basal feed, 8 weeks) was 1.79. Further, in the data set with grass carps (150 ppm in basal feed, 8 weeks), the Average final weight worked out at 721 g. The change in vivo at 150 ppm, 150 µg/mL in the data set with grass carps (po, 1344 h, read-out: Weight gain rate) was determined as 81.6%. Also, in data set [3], the “time to maximum blood concentration” value was ≤ 5 min. The antagonism of convulsion result in data set [4] is given as “can antagonize the convulsion”. In addition, the “inhibition of glutamate decarboxylase” value with glutamate decarboxylase is listed as “can inhibit a glutamate decarboxylase”. Moreover, the “protection of the kidney from cephalosporin nephrotoxicity” value in data set [5] is “can significantly protect the kidney”.

Values taken from patent US12302928B2, “Application of acylated derivative of amino acid in preparation of animal feed additive” (ANIPHA TECHNOLOGIES PTY LTD, priority 2018, dated 2025).
